The source of these data is article PMC12229529 (Scientific Reports, 2025).

Experiment [1] addresses serine/threonine protein kinase B (PknB). Briefly: SPR. Format: binding, Trueperella pyogenes.
In experiment [2] the target is T1, PknB (His-PknB) (Trueperella pyogenes, UniProt A0ABV3NC81).
T1 sequence (A0ABV3NC81 1-331): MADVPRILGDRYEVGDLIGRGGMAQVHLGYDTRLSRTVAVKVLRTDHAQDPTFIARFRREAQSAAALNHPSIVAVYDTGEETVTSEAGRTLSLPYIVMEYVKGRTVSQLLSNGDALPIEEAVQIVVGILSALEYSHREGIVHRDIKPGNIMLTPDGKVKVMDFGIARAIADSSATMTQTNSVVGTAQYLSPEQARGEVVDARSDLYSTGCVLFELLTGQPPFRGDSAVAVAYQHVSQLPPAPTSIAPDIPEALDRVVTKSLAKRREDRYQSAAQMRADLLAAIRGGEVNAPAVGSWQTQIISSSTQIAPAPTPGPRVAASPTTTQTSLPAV
Briefly: SPR. Format: binding. As to conditions: 1x PBS-P buffer; luteolin 0.3125-10 μmol/L (KD lies above the tested range).

In experiment [3] the target is T1, PknB (His-PknB). Description: ATP consumption luminescence. Format: biochemical. The following applies: 20 μM ATP, 10 mM MgCl2, 50 mM Tris-HCl pH 7.8, 1 mM DTT, 25 °C, 30 min.

A word on the Kd: it is a measure of binding affinity in units of concentration. As a reminder, the IC50 is the concentration that inhibits the measured activity by half. Low values mean greater potency in that assay, high ones weaker potency in that assay. For `O=c1cc(-c2ccc(O)c(O)c2)oc2cc(O)cc(O)c12` [luteolin], the Kd (in experiment [1]; at PknB (His-PknB) [2]) was 312 µM each time. Moreover, the IC50 on PknB (His-PknB) [3] is 221 µM.
